In PubChem BioAssay AID1963868 (Molecular Pharmacology Branch, DTP, NCI, 2024):

Test system: KRAS PDC tumor spheroids (HUVEC+MSC), viability
Assay: Anticancer human tumor 254851-301-R-J1-PDC patient-derived colon carcinoma cell line growth inhibition [KRAS2]
Conditions: for viability, T/C: stronger effect = lower value
In short: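 KRAS-mutant tumor cells were grown as spheroids with HUVEC endothelial cells and human MSCs as stroma. Targeted agents were tested alone and with KRAS pathway inhibitors. Doses started at or near clinical Cmax, or 10 microM, descending half-log.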

[1] = curve of first compound, second compound 0.1 µM
[2] = curve of first compound, second compound 0.316 µM
[3] = curve of first compound, second compound 1 µM
[4] = curve of first compound, second compound 3.16 µM
[5] = curve of first compound, second compound 10 µM
[6] = second compound 0.1 µM, first compound 0.0316 µM
[7] = second compound 0.1 µM, first compound 0.1 µM
[8] = second compound 0.316 µM, first compound 0.0316 µM
[9] = second compound 0.316 µM, first compound 0.1 µM
[10] = second compound 1 µM, first compound 0.0316 µM
[11] = second compound 1 µM, first compound 0.1 µM
[12] = second compound 3.16 µM, first compound 0.0316 µM
[13] = second compound 3.16 µM, first compound 0.1 µM
[14] = second compound 10 µM, first compound 0.0316 µM
[15] = second compound 10 µM, first compound 0.1 µM
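Note: spheroids exposed to compounds for seven days before readout.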
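Throughout, for viability, T/C: 100% = DMSO vehicle control luminescence of the spheroids.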

CC1(C)CCC(CN2CCN(c3ccc(C(=O)NS(=O)(=O)c4ccc(NCC5CCOCC5)c([N+](=O)[O-])c4)c(Oc4cnc5[nH]ccc5c4)c3)CC2)=C(c2ccc(Cl)cc2)C1
viability, T/C (compound 0.0316 µM): 103% [middle of 5 runs]
viability, T/C (compound 0.1 µM): 102% [middle of 5 runs]
viability, T/C (compound 0.316 µM): 101% [middle of 5 runs]
viability, T/C (compound 1 µM): 102% [middle of 5 runs]
viability, T/C (compound 3.16 µM): 96.3% [middle of 5 runs]
viability, T/C (compound 10 µM): 92.8% [middle of 5 runs]
IC50 (curve of compound): > 10000 nM

CN(C)C/C=C/C(=O)Nc1cc2c(Nc3ccc(F)c(Cl)c3)ncnc2cc1O[C@H]1CCOC1 + CNCc1ccccc1-c1csc(C(C)Nc2nc(C)nc3cc(OC)c(OC)cc23)c1
IC50 [1]: > 100 nM
IC50 [2]: > 100 nM
IC50 [3]: > 100 nM
IC50 [4]: > 100 nM
IC50 [5]: < 0.316 nM
viability, T/C (second compound 0.1 µM, first compound 0.000316 µM): 99.9%
viability, T/C (second compound 0.1 µM, first compound 0.001 µM): 105%
viability, T/C (second compound 0.1 µM, first compound 0.00316 µM): 96.4%
viability, T/C (second compound 0.1 µM, first compound 0.01 µM): 94.7%
viability, T/C [6]: 93.1%
viability, T/C [7]: 72.8%
viability, T/C (second compound 0.316 µM, first compound 0.000316 µM): 104%
viability, T/C (second compound 0.316 µM, first compound 0.001 µM): 98.3%
viability, T/C (second compound 0.316 µM, first compound 0.00316 µM): 90.4%
viability, T/C (second compound 0.316 µM, first compound 0.01 µM): 87.9%
viability, T/C [8]: 82.8%
viability, T/C [9]: 72.3%
viability, T/C (second compound 1 µM, first compound 0.000316 µM): 97.1%
viability, T/C (second compound 1 µM, first compound 0.001 µM): 89.2%
viability, T/C (second compound 1 µM, first compound 0.00316 µM): 84.6%
viability, T/C (second compound 1 µM, first compound 0.01 µM): 82%
viability, T/C [10]: 75.5%
viability, T/C [11]: 79.9%
viability, T/C (second compound 3.16 µM, first compound 0.000316 µM): 84%
viability, T/C (second compound 3.16 µM, first compound 0.001 µM): 82.1%
viability, T/C (second compound 3.16 µM, first compound 0.00316 µM): 81.8%
viability, T/C (second compound 3.16 µM, first compound 0.01 µM): 75.1%
viability, T/C [12]: 73.8%
viability, T/C [13]: 62.2%
viability, T/C (second compound 10 µM, first compound 0.000316 µM): 0.17%
viability, T/C (second compound 10 µM, first compound 0.001 µM): 0.18%
viability, T/C (second compound 10 µM, first compound 0.00316 µM): 0.18%
viability, T/C (second compound 10 µM, first compound 0.01 µM): 0.16%
viability, T/C [14]: 0.17%
viability, T/C [15]: 0.21%

COc1cc(Nc2ncc3c(n2)-c2ccc(Cl)cc2C(c2c(F)cccc2OC)=NC3)ccc1C(=O)O + CC1OCC2(CCN(c3cnc(Sc4ccnc(N)c4Cl)c(N)n3)CC2)C1N
IC50 [1]: 87.5 nM
IC50 [2]: 79 nM
IC50 [3]: 76.4 nM
IC50 [4]: 61.4 nM
IC50 [5]: 41.4 nM
viability, T/C [6]: 91.7%
viability, T/C [7]: 39.8%
viability, T/C (second compound 0.1 µM, first compound 0.316 µM): 28.8%
viability, T/C (second compound 0.1 µM, first compound 1 µM): 24.9%
viability, T/C (second compound 0.1 µM, first compound 3.16 µM): 17.1%
viability, T/C (second compound 0.1 µM, first compound 10 µM): 7.2%
viability, T/C [8]: 81.1%
viability, T/C [9]: 37%
viability, T/C (second compound 0.316 µM, first compound 0.316 µM): 28.2%
viability, T/C (second compound 0.316 µM, first compound 1 µM): 22.6%
viability, T/C (second compound 0.316 µM, first compound 3.16 µM): 13.8%
viability, T/C (second compound 0.316 µM, first compound 10 µM): 6.88%
viability, T/C [10]: 86.1%
viability, T/C [11]: 33.1%
viability, T/C (second compound 1 µM, first compound 0.316 µM): 29.1%
viability, T/C (second compound 1 µM, first compound 1 µM): 23.1%
viability, T/C (second compound 1 µM, first compound 3.16 µM): 14.6%
viability, T/C (second compound 1 µM, first compound 10 µM): 7.07%
viability, T/C [12]: 70.9%
viability, T/C [13]: 30.7%
viability, T/C (second compound 3.16 µM, first compound 0.316 µM): 23.9%
viability, T/C (second compound 3.16 µM, first compound 1 µM): 21.7%
viability, T/C (second compound 3.16 µM, first compound 3.16 µM): 12.3%
viability, T/C (second compound 3.16 µM, first compound 10 µM): 5.89%
viability, T/C [14]: 58.1%
viability, T/C [15]: 23.1%
viability, T/C (second compound 10 µM, first compound 0.316 µM): 21.1%
viability, T/C (second compound 10 µM, first compound 1 µM): 19.8%
viability, T/C (second compound 10 µM, first compound 3.16 µM): 13.8%
viability, T/C (second compound 10 µM, first compound 10 µM): 6.31%
